Source: patent USRE46630E1, “Substituted 4-pyridones and their use as inhibitors of neutrophil elastase activity” (Boehringer Ingelheim International GmbH, priority 2012, dated 2017)

These compounds were tested against T1, Human neutrophil elastase (Homo sapiens, UniProt P08246) (assay: Human Neutrophil Elastase Assay). Details: Neutrophil Elastase assay; substrate MeOSuc-Ala-Ala-Pro-Val-AMC 250 μM; 15 min preincubation, 60 min incubation at room temperature; pH 7.5.
T1 construct: purchased Calbiochem 324681
T1 sequence (P08246 30-267): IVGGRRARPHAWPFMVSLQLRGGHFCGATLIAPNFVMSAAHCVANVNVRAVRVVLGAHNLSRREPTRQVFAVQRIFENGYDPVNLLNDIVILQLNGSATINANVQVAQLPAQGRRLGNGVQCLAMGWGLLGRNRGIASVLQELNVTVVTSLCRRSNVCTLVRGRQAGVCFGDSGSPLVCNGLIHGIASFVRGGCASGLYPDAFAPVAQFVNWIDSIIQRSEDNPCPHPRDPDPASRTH
Format: biochemical
In short: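 Run in 100 mM Tris, 500 mM NaCl, pH 7.5 with 0.01% BSA, with compounds prediluted in DMSO then buffer (5% DMSO final). Fluorescence was read at 380 nm excitation/460 nm emission after enzyme inactivation. Values were normalised to inactivated-enzyme (0%) and uninhibited-enzyme (100%) controls.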

Row | SMILES | IC50
1 | Cc1c(-c2ccnc(C(F)(F)F)c2)c(=O)c(C(=O)NCCCN(C)C)cn1C(C)c1ccc(C#N)cc1 (stereo not drawn) [Example 9.11] | 18.3 nM
2 | Cc1c(-c2ccnc(C(F)(F)F)c2)c(=O)c(C(=O)NC2CCN(C)C2=O)cn1C(C)c1ccc(C#N)cc1 (stereo not drawn) [Example 9.12] | 4.6 nM
3 | Cc1c(-c2ccnc(C(F)(F)F)c2)c(=O)c(C(=O)NCC#N)cn1C(C)c1ccc(C#N)cc1 (stereo not drawn) [Example 9.13] | 1.7 nM
4 | CCCNC(=O)c1cn(C(C)c2ccc(C#N)cc2)c(C)c(-c2ccnc(C(F)(F)F)c2)c1=O (stereo not drawn) [Example 9.14] | 7 nM
5 | Cc1c(-c2ccnc(C(F)(F)F)c2)c(=O)c(C(=O)NCC2COC2)cn1C(C)c1ccc(C#N)cc1 (stereo not drawn) [Example 9.15] | 5.7 nM
6 | Cc1c(-c2ccnc(C(F)(F)F)c2)c(=O)c(C(=O)NCc2ccnn2C)cn1C(C)c1ccc(C#N)cc1 (stereo not drawn) [Example 9.16] | 6.7 nM
7 | Cc1c(-c2ccnc(C(F)(F)F)c2)c(=O)c(C(=O)NC2COC2)cn1C(C)c1ccc(C#N)cc1 (stereo not drawn) [Example 9.17] | 10.1 nM
8 | Cc1c(-c2ccnc(C(F)(F)F)c2)c(=O)c(C(=O)NCC(N)=O)cn1C(C)c1ccc(C#N)cc1 (stereo not drawn) [Example 9.18] | 7.5 nM
9 | Cc1c(-c2ccnc(C(F)(F)F)c2)c(=O)c(C(=O)NCc2cnn(C)c2)cn1C(C)c1ccc(C#N)cc1 (stereo not drawn) [Example 9.19] | 8.9 nM
10 | Cc1c(-c2ccnc(C(F)(F)F)c2)c(=O)c(C(=O)NCC2CC2)cn1C(C)c1ccc(C#N)cc1 (stereo not drawn) [Example 9.20] | 10.9 nM
11 | Cc1c(-c2ccnc(C(F)(F)F)c2)c(=O)c(C(=O)NCC2CCOC2)cn1C(C)c1ccc(C#N)cc1 (stereo not drawn) [Example 9.21] | 9.5 nM
12 | Cc1c(-c2ccnc(C(F)(F)F)c2)c(=O)c(C(=O)NCC(F)F)cn1C(C)c1ccc(C#N)cc1 (stereo not drawn) [Example 9.22] | 7.3 nM
13 | Cc1c(-c2ccnc(C(F)(F)F)c2)c(=O)c(C(=O)NCC2CCC2)cn1C(C)c1ccc(C#N)cc1 (stereo not drawn) [Example 9.23] | 14.4 nM
14 | Cc1c(-c2ccnc(C(F)(F)F)c2)c(=O)c(C(=O)NCC2CC3CCC2O3)cn1C(C)c1ccc(C#N)cc1 (stereo not drawn) [Example 9.24] | 9.8 nM
15 | Cc1c(-c2ccnc(C(F)(F)F)c2)c(=O)c(C(=O)NC2CCOCC2)cn1C(C)c1ccc(C#N)cc1 (stereo not drawn) [Example 9.25] | 11.4 nM
16 | Cc1c(-c2ccnc(C(F)(F)F)c2)c(=O)c(C(=O)NCC2CCCO2)cn1C(C)c1ccc(C#N)cc1 (stereo not drawn) [Example 9.26] | 12.1 nM
17 | Cc1c(-c2ccnc(C(F)(F)F)c2)c(=O)c(C(=O)NCC2CCO2)cn1C(C)c1ccc(C#N)cc1 (stereo not drawn) [Example 9.27] | 13.7 nM
18 | Cc1c(-c2ccnc(C(F)(F)F)c2)c(=O)c(C(=O)NCC2CCOCC2)cn1C(C)c1ccc(C#N)cc1 (stereo not drawn) [Example 9.28] | 12.8 nM
19 | Cc1c(-c2ccnc(C(F)(F)F)c2)c(=O)c(C(=O)NC2CCCCC2O)cn1C(C)c1ccc(C#N)cc1 (stereo not drawn) [Example 9.29] | 22.3 nM

Row | SMILES | IC50
20 | Cc1c(-c2ccnc(C(F)(F)F)c2)c(=O)c(C(=O)NCC2CC3CCC2O3)cn1C(C)c1ccc(C#N)cc1 (stereo not drawn) [Example 9.30] | 16.3 nM
21 | Cc1c(-c2ccnc(C(F)(F)F)c2)c(=O)c(C(=O)NCC(=O)OC(C)C)cn1C(C)c1ccc(C#N)cc1 (stereo not drawn) [Example 9.31] | 18.7 nM
22 | Cc1c(-c2ccnc(C(F)(F)F)c2)c(=O)c(C(=O)NCC2CCCO2)cn1C(C)c1ccc(C#N)cc1 (stereo not drawn) [Example 9.32] | 19.4 nM
23 | COC(=O)C(C)NC(=O)c1cn(C(C)c2ccc(C#N)cc2)c(C)c(-c2ccnc(C(F)(F)F)c2)c1=O (stereo not drawn) [Example 9.33] | 23.1 nM
24 | Cc1c(-c2ccnc(C(F)(F)F)c2)c(=O)c(C(=O)NC2CCOC2)cn1C(C)c1ccc(C#N)cc1 (stereo not drawn) [Example 9.34] | 23.5 nM
25 | Cc1c(-c2ccnc(C(F)(F)F)c2)c(=O)c(C(=O)NC2CCCC2O)cn1C(C)c1ccc(C#N)cc1 (stereo not drawn) [Example 9.35] | 26.2 nM
26 | Cc1c(-c2ccnc(C(F)(F)F)c2)c(=O)c(C(=O)NC2CCCC2O)cn1C(C)c1ccc(C#N)cc1 (stereo not drawn) [Example 9.36] | 33.9 nM
27 | Cc1c(-c2ccnc(C(F)(F)F)c2)c(=O)c(C(=O)NCC2CCCCO2)cn1C(C)c1ccc(C#N)cc1 (stereo not drawn) [Example 9.37] | 32.9 nM
28 | Cc1c(-c2ccnc(C(F)(F)F)c2)c(=O)c(C(=O)NCC2(C)COC2)cn1C(C)c1ccc(C#N)cc1 (stereo not drawn) [Example 9.38] | 33.3 nM
29 | Cc1c(-c2ccnc(C(F)(F)F)c2)c(=O)c(C(=O)NC2CC3CCC2O3)cn1C(C)c1ccc(C#N)cc1 (stereo not drawn) [Example 9.39] | 58.3 nM
30 | Cc1c(-c2ccnc(C(F)(F)F)c2)c(=O)c(C(=O)NC2COCC2O)cn1C(C)c1ccc(C#N)cc1 (stereo not drawn) [Example 9.40] | 69.4 nM
31 | Cc1c(-c2ccnc(C(F)(F)F)c2)c(=O)c(C(=O)NC2CCCC2O)cn1C(C)c1ccc(C#N)cc1 (stereo not drawn) [Example 9.41] | 100 nM
32 | Cc1c(-c2ccnc(C(F)(F)F)c2)c(=O)c(C(=O)NC2COCC2O)cn1C(C)c1ccc(C#N)cc1 (stereo not drawn) [Example 9.42] | 29.9 nM
33 | Cc1c(-c2ccnc(C(F)(F)F)c2)c(=O)c(C(=O)NCC(F)(F)F)cn1C(C)c1ccc(C#N)cc1 (stereo not drawn) [Example 9.43] | 11.5 nM
34 | Cc1c(-c2ccnc(C(F)(F)F)c2)c(=O)c(C(=O)NCCF)cn1C(C)c1ccc(C#N)cc1 (stereo not drawn) [Example 9.44] | 9.8 nM
35 | Cc1c(-c2ccnc(C(F)(F)F)c2)c(=O)c(C(=O)NC2(C#N)CC2)cn1C(C)c1ccc(C#N)cc1 (stereo not drawn) [Example 9.45] | 5.3 nM
36 | Cc1c(-c2ccnc(C(F)(F)F)c2)c(=O)c(C(=O)NC(C)(C)C#N)cn1C(C)c1ccc(C#N)cc1 (stereo not drawn) [Example 9.46] | 94 nM
37 | Cc1c(-c2ccnc(C(F)(F)F)c2)c(=O)c(C(=O)NCC2CC(O)C2)cn1C(C)c1ccc(C#N)cc1 (stereo not drawn) [Example 9.47] | 14.9 nM
38 | Cc1c(-c2ccnc(C(F)(F)F)c2)c(=O)c(C(=O)NCC2CC(O)C2)cn1C(C)c1ccc(C#N)cc1 (stereo not drawn) [Example 9.48] | 17.3 nM

Row | SMILES | IC50
39 | COCC(C)(C#N)NC(=O)c1cn(C(C)c2ccc(C#N)cc2)c(C)c(-c2ccnc(C(F)(F)F)c2)c1=O (stereo not drawn) [Example 9.49] | 150 nM
40 | Cc1c(-c2ccnc(C(F)(F)F)c2)c(=O)c(C(=O)NC(C)C#N)cn1C(C)c1ccc(C#N)cc1 (stereo not drawn) [Example 9.50] | 4.6 nM
41 | C=CCNC(=O)c1cn(C(C)c2ccc(C#N)cc2)c(C)c(-c2ccnc(C(F)(F)F)c2)c1=O (stereo not drawn) [Example 9.51] | 6 nM
42 | Cc1c(-c2ccnc(C(F)(F)F)c2)c(=O)c(C(=O)NCC(C)(C)C)cn1C(C)c1ccc(C#N)cc1 (stereo not drawn) [Example 9.52] | 420 nM
43 | Cc1c(-c2ccnc(C(F)(F)F)c2)c(=O)c(C(=O)NCC(C)C)cn1C(C)c1ccc(C#N)cc1 (stereo not drawn) [Example 9.53] | 23 nM
44 | Cc1c(-c2ccnc(C(F)(F)F)c2)c(=O)c(C(=O)NCCC#N)cn1C(C)c1ccc(C#N)cc1 (stereo not drawn) [Example 9.54] | 4.1 nM
45 | CCNC(=O)c1cn(C(C)c2ccc(C#N)cc2)c(C)c(-c2ccnc(C(F)(F)F)c2)c1=O (stereo not drawn) [Example 9.56] | 6.1 nM
46 | COCCNC(=O)c1cn(C(C)c2ccc(C#N)cc2)c(C)c(-c2ccnc(C(F)(F)F)c2)c1=O (stereo not drawn) [Example 9.57] | 5.2 nM
47 | CCOCCNC(=O)c1cn(C(C)c2ccc(C#N)cc2)c(C)c(-c2ccnc(C(F)(F)F)c2)c1=O (stereo not drawn) [Example 9.58] | 5.4 nM
48 | COCCCNC(=O)c1cn(C(C)c2ccc(C#N)cc2)c(C)c(-c2ccnc(C(F)(F)F)c2)c1=O (stereo not drawn) [Example 9.59] | 7.5 nM
49 | Cc1c(-c2ccnc(C(F)(F)F)c2)c(=O)c(C(=O)NCCC(C)O)cn1C(C)c1ccc(C#N)cc1 (stereo not drawn) [Example 9.60] | 5.7 nM
50 | Cc1c(-c2ccnc(C(F)(F)F)c2)c(=O)c(C(=O)NCC(C)O)cn1C(C)c1ccc(C#N)cc1 (stereo not drawn) [Example 9.61] | 8.6 nM
51 | Cc1c(-c2ccnc(C(F)(F)F)c2)c(=O)c(C(=O)NCC(C)O)cn1C(C)c1ccc(C#N)cc1 (stereo not drawn) [Example 9.62] | 12 nM
52 | Cc1c(-c2ccnc(C(F)(F)F)c2)c(=O)c(C(=O)NCC(C)(C)O)cn1C(C)c1ccc(C#N)cc1 (stereo not drawn) [Example 9.63] | 37.5 nM
53 | Cc1c(-c2cccc(C(F)(F)F)c2)c(=O)c(C(=O)NCC[N+](C)(C)C)cn1Cc1ccc(C#N)cc1 [Example 12.1, (2-{[1-(4-Cyano-benzyl)-6-methyl-4-oxo-5-(3-trifluoromethyl-phenyl)-1,4-dihydro-pyridine-3-carbonyl]-amino}-ethyl)-trimethyl-ammonium chloride] | 35.9 nM
54 | Cc1c(-c2cccc(C(F)(F)F)c2)c(=O)c(C(=O)NCCC[N+](C)(C)C)cn1Cc1ccc(C#N)cc1 [Example 12.2, (3-{[1-(4-Cyano-benzyl)-6-methyl-4-oxo-5-(3-trifluoromethyl-phenyl)-1,4-dihydro-pyridine-3-carbonyl]-amino}-propyl)-trimethyl-ammonium chloride] | 49.5 nM
55 | Cc1c(-c2cccc(C(F)(F)F)c2)c(=O)c(C(=O)NCC2CC[N+](C)(C)CC2)cn1Cc1ccc(C#N)cc1 [Example 12.3, 4-({[1-(4-Cyano-benzyl)-6-methyl-4-oxo-5-(3-trifluoromethyl-phenyl)-1,4-dihydro-pyridine-3-carbonyl]-amino}-methyl)-1,1-dimethyl-piperidinium chloride] | 59.7 nM
56 | Cc1c(-c2cccc(C(F)(F)F)c2)c(=O)c(C(=O)NCC2CCN(C(=O)C[N+](C)(C)C)CC2)cn1Cc1ccc(C#N)cc1 [Example 12.4, {2-[4-({[1-(4-Cyano-benzyl)-6-methyl-4-oxo-5-(3-trifluoromethyl-phenyl)-1,4-dihydro-pyridine-3-carbonyl]-amino}-methyl)-piperidin-1-yl]-2-oxo-ethyl}-trimethyl-ammonium chloride] | 14.4 nM
57 | CS(=O)(=O)c1ccc(CNC(=O)c2cn(Cc3ccc(C#N)cc3)cc(-c3cccc(C(F)(F)F)c3)c2=O)cc1 [Example 13.1, 1-(4-Cyano-benzyl)-4-oxo-5-(3-trifluoromethyl-phenyl)-1,4-dihydro-pyridine-3-carboxylic acid 4-methanesulfonyl-benzylamide] | 6.6 nM
